ChEMBL document CHEMBL1128649, “CD45 protein tyrosine phosphatase: Determination of minimal peptide length for substrate recognition and synthesis of some tyrosine-based electrophiles as potential active-site directed irreversible inhibitors” (Bioorg Med Chem Lett, 1995)
Activity calls are given as the source filed them. No cut-off for these calls is given here. Non-standard residues stand in square brackets, D forms with d. Residues, ends and D or L forms follow the SMILES beside them. *: point of attachment. pY = N[C@@H](Cc1ccc(OP(=O)(O)O)cc1)C(=O)O; Cbz = O=C(OCc1ccccc1)*

Key:
[1] = target: T1, Receptor-type tyrosine-protein phosphatase C (Homo sapiens) (UniProt P08575); assay: Compound was evaluated for inhibitory activity against CD45 protein tyrosine phosphatase at a concentration of 200 uM; no activity
T1 sequence (whole entry): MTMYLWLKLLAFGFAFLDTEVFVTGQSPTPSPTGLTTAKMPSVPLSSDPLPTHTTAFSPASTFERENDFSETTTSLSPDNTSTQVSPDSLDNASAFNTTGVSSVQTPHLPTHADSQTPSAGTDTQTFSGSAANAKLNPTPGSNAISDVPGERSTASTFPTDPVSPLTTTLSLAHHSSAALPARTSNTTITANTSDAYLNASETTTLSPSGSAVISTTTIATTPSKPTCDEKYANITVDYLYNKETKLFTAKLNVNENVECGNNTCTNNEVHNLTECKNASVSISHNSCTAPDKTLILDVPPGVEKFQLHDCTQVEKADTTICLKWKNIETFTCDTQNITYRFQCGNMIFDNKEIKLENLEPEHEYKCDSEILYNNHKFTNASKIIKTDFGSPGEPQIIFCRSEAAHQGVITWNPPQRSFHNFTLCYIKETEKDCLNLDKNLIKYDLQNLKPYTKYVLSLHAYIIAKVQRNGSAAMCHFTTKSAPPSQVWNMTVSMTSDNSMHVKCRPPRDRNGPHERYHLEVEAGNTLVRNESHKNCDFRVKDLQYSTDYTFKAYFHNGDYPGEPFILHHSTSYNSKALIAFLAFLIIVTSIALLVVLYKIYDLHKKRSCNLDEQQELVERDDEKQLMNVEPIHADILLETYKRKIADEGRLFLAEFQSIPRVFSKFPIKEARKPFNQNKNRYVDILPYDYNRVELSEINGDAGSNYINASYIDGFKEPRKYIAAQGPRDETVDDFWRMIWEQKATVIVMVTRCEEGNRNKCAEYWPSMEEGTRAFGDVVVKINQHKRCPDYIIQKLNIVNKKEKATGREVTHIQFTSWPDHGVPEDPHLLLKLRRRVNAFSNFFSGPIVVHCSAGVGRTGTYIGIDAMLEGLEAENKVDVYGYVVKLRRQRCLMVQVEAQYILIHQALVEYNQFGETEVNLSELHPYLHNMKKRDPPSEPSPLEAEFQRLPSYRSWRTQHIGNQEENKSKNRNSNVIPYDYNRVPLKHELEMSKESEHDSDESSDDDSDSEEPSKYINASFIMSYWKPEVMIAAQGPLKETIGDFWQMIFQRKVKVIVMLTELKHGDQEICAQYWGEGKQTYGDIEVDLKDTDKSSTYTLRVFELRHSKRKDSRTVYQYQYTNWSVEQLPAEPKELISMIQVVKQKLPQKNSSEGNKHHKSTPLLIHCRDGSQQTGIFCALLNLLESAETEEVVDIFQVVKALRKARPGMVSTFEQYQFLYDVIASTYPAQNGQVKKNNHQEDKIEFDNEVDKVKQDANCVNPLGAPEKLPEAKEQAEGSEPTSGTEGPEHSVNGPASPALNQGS

[2] = target: T1, Receptor-type tyrosine-protein phosphatase C (Homo sapiens); assay: (§1) Kinetic constant for CD45 protein tyrosine phosphatase inhibition was evaluated using malachite green assay
[3] = target: T1, Receptor-type tyrosine-protein phosphatase C (Homo sapiens); assay: (§2) Kinetic constant for CD45 Protein-tyrosine phosphatase inhibition was evaluated using malachite green assay
[4] = compound: CC(=O)N[C@@H](Cc1ccccc1)C(=O)N[C@H](C(=O)N[C@@H](C)C(=O)N[C@H](C(=O)N[C@@H](CCC(=O)O)C(=O)N1CCC[C@H]1C(=O)N[C@@H](CCC(N)=O)C(=O)N[C@@H](Cc1ccc(OP(=O)(O)O)cc1)C(=O)N[C@@H](CCC(N)=O)C(=O)N1CCC[C@H]1C(=O)NCC(=O)N[C@@H](CCC(N)=O)C(=O)N[C@@H](CC(N)=O)C(=O)N[C@@H](CC(C)C)C(N)=O)[C@@H](C)O)[C@@H](C)O; assay: as §2
[5] = compound: CC(=O)N1CCC[C@H]1C(=O)N[C@@H](CCC(N)=O)C(=O)N[C@@H](Cc1ccc(OP(=O)(O)O)cc1)C(=O)N[C@@H](CCC(N)=O)C(=O)N1CCC[C@@H]1C(N)=O; assay: as §1
[6] = compound: CC(=O)N1CCC[C@H]1C(=O)N[C@@H](CCC(N)=O)C(=O)N[C@@H](Cc1ccc(OP(=O)(O)O)cc1)C(=O)N[C@@H](CCC(N)=O)C(N)=O; assay: as §1
[7] = compound: CC(=O)N[C@@H](C)C(=O)N[C@H](C(=O)N[C@@H](CCC(=O)O)C(=O)N1CCC[C@H]1C(=O)N[C@@H](CCC(N)=O)C(=O)N[C@@H](Cc1ccc(OP(=O)(O)O)cc1)C(=O)N[C@@H](CCC(N)=O)C(=O)N1CCC[C@H]1C(=O)NCC(=O)N[C@@H](CCC(N)=O)C(=O)N[C@@H](CC(N)=O)C(=O)N[C@@H](CC(C)C)C(N)=O)[C@@H](C)O; assay: as §1
[8] = compound: CC(=O)N[C@@H](CCC(=O)O)C(=O)N1CCC[C@H]1C(=O)N[C@@H](CCC(N)=O)C(=O)N[C@@H](Cc1ccc(OP(=O)(O)O)cc1)C(=O)N[C@@H](CCC(N)=O)C(=O)N1CCC[C@H]1C(=O)NCC(=O)N[C@@H](CCC(N)=O)C(=O)N[C@@H](CC(N)=O)C(=O)N[C@@H](CC(C)C)C(N)=O; assay: as §1
[9] = compound: CC(=O)N[C@@H](CCC(N)=O)C(=O)N[C@@H](Cc1ccc(OP(=O)(O)O)cc1)C(=O)N[C@@H](CCC(N)=O)C(=O)N1CCC[C@@H]1C(N)=O; assay: as §1
[10] = compound: CC(=O)N[C@@H](CCC(N)=O)C(=O)N[C@@H](Cc1ccc(OP(=O)(O)O)cc1)C(=O)N[C@@H](CCC(N)=O)C(=O)N1CCC[C@H]1C(=O)NCC(=O)N[C@@H](CCC(N)=O)C(=O)N[C@@H](CC(N)=O)C(=O)N[C@@H](CC(C)C)C(N)=O; assay: as §1
[11] = compound: CC(=O)N[C@@H](Cc1ccc(OP(=O)(O)O)cc1)C(N)=O; assay: as §1
[12] = compound: O=[N+]([O-])c1ccc(OP(=O)(O)O)cc1; assay: as §1

| Molecule | Activity [1] | k cat [2] | other results |
| --- | --- | --- | --- |
| NC(=O)CC[C@H](NC(=O)[C@H](Cc1ccc(O)cc1)NC(=O)[C@H](CCC(N)=O)NC(=O)OCc1ccccc1)C(N)=O (Cbz-Gln-Tyr-Gln-NH2) | inactive | – | – |
| NC(=O)[C@H](Cc1ccc(OC[C@H]2CO2)cc1)NC(=O)OCc1ccccc1 | inactive | – | – |
| CC(=O)N[C@@H](CCC(=O)O)C(=O)N1CCC[C@H]1C(=O)N[C@@H](CCC(N)=O)C(=O)N[C@@H](Cc1ccc(OP(=O)(O)O)cc1)C(=O)N[C@@H](CCC(N)=O)C(=O)N1CCC[C@H]1C(=O)NCC(=O)N[C@@H](CCC(N)=O)C(=O)N[C@@H](CC(N)=O)C(=O)N[C@@H](CC(C)C)C(N)=O (Ac-EPQ[pY]QPGQNL-NH2) | – | 4.22 s⁻¹ | – |
| CC(=O)N[C@@H](Cc1ccccc1)C(=O)N[C@H](C(=O)N[C@@H](C)C(=O)N[C@H](C(=O)N[C@@H](CCC(=O)O)C(=O)N1CCC[C@H]1C(=O)N[C@@H](CCC(N)=O)C(=O)N[C@@H](Cc1ccc(OP(=O)(O)O)cc1)C(=O)N[C@@H](CCC(N)=O)C(=O)N1CCC[C@H]1C(=O)NCC(=O)N[C@@H](CCC(N)=O)C(=O)N[C@@H](CC(N)=O)C(=O)N[C@@H](CC(C)C)C(N)=O)[C@@H](C)O)[C@@H](C)O (Ac-FTATEPQ[pY]QPGQNL-NH2) | – | – | k cat [3]: 3.95 s⁻¹ |
| NC(=O)[C@H](Cc1ccc(OP(=O)(O)CCl)cc1)NC(=O)OCc1ccccc1 | inactive | – | – |
| CC(=O)N[C@@H](C)C(=O)N[C@H](C(=O)N[C@@H](CCC(=O)O)C(=O)N1CCC[C@H]1C(=O)N[C@@H](CCC(N)=O)C(=O)N[C@@H](Cc1ccc(OP(=O)(O)O)cc1)C(=O)N[C@@H](CCC(N)=O)C(=O)N1CCC[C@H]1C(=O)NCC(=O)N[C@@H](CCC(N)=O)C(=O)N[C@@H](CC(N)=O)C(=O)N[C@@H](CC(C)C)C(N)=O)[C@@H](C)O (Ac-ATEPQ[pY]QPGQNL-NH2) | – | 4.93 s⁻¹ | – |
| NC(=O)[C@H](Cc1ccc(OC[C@@H]2CO2)cc1)NC(=O)OCc1ccccc1 | inactive | – | – |
| NC(=O)[C@H](Cc1ccc(OC(=O)CCl)cc1)NC(=O)OCc1ccccc1 | inactive | – | – |
| CC(=O)N1CCC[C@H]1C(=O)N[C@@H](CCC(N)=O)C(=O)N[C@@H](Cc1ccc(OP(=O)(O)O)cc1)C(=O)N[C@@H](CCC(N)=O)C(N)=O (Ac-PQ[pY]Q-NH2) | – | 3.95 s⁻¹ | – |
| NC(=O)[C@H](Cc1ccc(O)cc1)NC(=O)OCc1ccccc1 | inactive | – | – |
| CC(=O)N[C@@H](CCC(N)=O)C(=O)N[C@@H](Cc1ccc(OP(=O)(O)O)cc1)C(=O)N[C@@H](CCC(N)=O)C(=O)N1CCC[C@@H]1C(N)=O | – | 3.95 s⁻¹ | – |
| CC(=O)N[C@@H](CCC(N)=O)C(=O)N[C@@H](Cc1ccc(OP(=O)(O)O)cc1)C(=O)N[C@@H](CCC(N)=O)C(=O)N1CCC[C@H]1C(=O)NCC(=O)N[C@@H](CCC(N)=O)C(=O)N[C@@H](CC(N)=O)C(=O)N[C@@H](CC(C)C)C(N)=O (Ac-Q[pY]QPGQNL-NH2) | – | 4.82 s⁻¹ | – |
| NC(=O)CC[C@H](NC(=O)[C@H](Cc1ccc(OC[C@@H]2CO2)cc1)NC(=O)[C@H](CCC(N)=O)NC(=O)OCc1ccccc1)C(N)=O | inactive | – | – |
| O=[N+]([O-])c1ccc(OP(=O)(O)O)cc1 | – | 3.95 s⁻¹ | – |
| CC(=O)N1CCC[C@H]1C(=O)N[C@@H](CCC(N)=O)C(=O)N[C@@H](Cc1ccc(OP(=O)(O)O)cc1)C(=O)N[C@@H](CCC(N)=O)C(=O)N1CCC[C@@H]1C(N)=O | – | 3.95 s⁻¹ | – |
| CC(=O)N[C@@H](Cc1ccc(OP(=O)(O)O)cc1)C(N)=O | – | 3.95 s⁻¹ | – |
| Receptor-type tyrosine-protein phosphatase C (Homo sapiens), P08575 (protein) MTMYLWLKLLAFGFAFLDTEVFVTGQSPTPSPTGLTTAKMPSVPLSSDPLPTHTTAFSPASTFERENDFSETTTSLSPDNTSTQVSPDSLDNASAFNTTGVSSVQTPHLPTHADSQTPSAGTDTQTFSGSAANAKLNPTPGSNAISDVPGERSTASTFPTDPVSPLTTTLSLAHHSSAALPARTSNTTITANTSDAYLNASETTTLSPSGSAVISTTTIATTPSKPTCDEKYANITVDYLYNKETKLFTAKLNVNENVECGNNTCTNNEVHNLTECKNASVSISHNSCTAPDKTLILDVPPGVEKFQLHDCTQVEKADTTICLKWKNIETFTCDTQNITYRFQCGNMIFDNKEIKLENLEPEHEYKCDSEILYNNHKFTNASKIIKTDFGSPGEPQIIFCRSEAAHQGVITWNPPQRSFHNFTLCYIKETEKDCLNLDKNLIKYDLQNLKPYTKYVLSLHAYIIAKVQRNGSAAMCHFTTKSAPPSQVWNMTVSMTSDNSMHVKCRPPRDRNGPHERYHLEVEAGNTLVRNESHKNCDFRVKDLQYSTDYTFKAYFHNGDYPGEPFILHHSTSYNSKALIAFLAFLIIVTSIALLVVLYKIYDLHKKRSCNLDEQQELVERDDEKQLMNVEPIHADILLETYKRKIADEGRLFLAEFQSIPRVFSKFPIKEARKPFNQNKNRYVDILPYDYNRVELSEINGDAGSNYINASYIDGFKEPRKYIAAQGPRDETVDDFWRMIWEQKATVIVMVTRCEEGNRNKCAEYWPSMEEGTRAFGDVVVKINQHKRCPDYIIQKLNIVNKKEKATGREVTHIQFTSWPDHGVPEDPHLLLKLRRRVNAFSNFFSGPIVVHCSAGVGRTGTYIGIDAMLEGLEAENKVDVYGYVVKLRRQRCLMVQVEAQYILIHQALVEYNQFGETEVNLSELHPYLHNMKKRDPPSEPSPLEAEFQRLPSYRSWRTQHIGNQEENKSKNRNSNVIPYDYNRVPLKHELEMSKESEHDSDESSDDDSDSEEPSKYINASFIMSYWKPEVMIAAQGPLKETIGDFWQMIFQRKVKVIVMLTELKHGDQEICAQYWGEGKQTYGDIEVDLKDTDKSSTYTLRVFELRHSKRKDSRTVYQYQYTNWSVEQLPAEPKELISMIQVVKQKLPQKNSSEGNKHHKSTPLLIHCRDGSQQTGIFCALLNLLESAETEEVVDIFQVVKALRKARPGMVSTFEQYQFLYDVIASTYPAQNGQVKKNNHQEDKIEFDNEVDKVKQDANCVNPLGAPEKLPEAKEQAEGSEPTSGTEGPEHSVNGPASPALNQGS | – | – | Km [4]: 278 µM; Km [5]: 278 µM; Km [6]: 278 µM; Km [7]: 143 µM; Km [8]: 102 µM; Km [9]: 278 µM; Km [10]: 172 µM; Km [11]: 278 µM; Km [12]: 278 µM |
